The source of these data is US20210205404A1, “PHARMACEUTICAL COMPOSITION OF KOR RECEPTOR AGONIST” (JIANGSU HENGRUI MEDICINE CO., LTD., priority 2018, published 2021).

The procedure of series [1]: High performance liquid chromatography (HPLC) was determined on an Agilent 1200DAD high pressure liquid chromatograph (Sunfire C18 150×4.6 mm column) and Waters 2695-2996 high pressure liquid chromatograph (Gimini C18 150×4.6 mm column).
The study period was 20 days.

The nature of series [2]: Solubility of the active ingredient (statement). It is filed as physicochemical. As to conditions: free compound, background statement.

Structures are written as SMILES. Like-named read-outs stand apart in the source and are kept apart here. Square brackets hold non-standard residues; d marks the D form. Peptide text beside a SMILES is read from it. * marks the point of attachment. Gly(N-(2R-Ph-propyl)) = C[C@@H](CNCC(=O)O)c1ccccc1; Piperidin1yl(4-NH2,4-COOH) = NC1(C(=O)O)CCN(*)CC1

For the molecule `CC(C)C[C@@H](NC(=O)[C@@H](Cc1ccccc1)NC(=O)CNC[C@H](C)c1ccccc1)C(=O)N[C@H](CCCCN)C(=O)N1CCC(N)(C(=O)O)CC1.Cl.Cl.Cl` [Hydrochloride (1:3), 4-Amino-N—[N^2—[N—[N—[N-((R)-2-phenylpropyl)glycyl]-D-phenylalanyl]-D-leucyl]-D-lysyl]piperidine-4-carboxylic acid hydrochloride (1:3)] (H-[Gly(N-(2R-Ph-propyl))][dF][dL][dK]-{Piperidin1yl(4-NH2,4-COOH)}), the Purity % in series [1] (40° C., 5 days) came out at 96.54%; in series [1] (40° C., 10 days) it was 96.42%; in series [1] (40° C., 20 days), 96.41%; in series [1] (60° C., 5 days), 96.42%; in series [1] (60° C., 10 days), 96.43%; in series [1] (60° C., 20 days), 96.41%. In addition, the Purity % in series [1] (4500 Lux, 0 day (start value)) is 96.50%; in series [1] (4500 Lux, 5 days), 95.57%; in series [1] (4500 Lux, 10 days) it was 94.27%; in series [1] (4500 Lux, 20 days), 94.24%. For the same molecule, in series [1] (lighting, 40° C. and 60° C., 20 days), the “Stability of the salt (conclusion in words)” value is on record as “good stability”.

`CC(C)C[C@@H](NC(=O)[C@@H](Cc1ccccc1)NC(=O)CNC[C@H](C)c1ccccc1)C(=O)N[C@H](CCCCN)C(=O)N1CCC(N)(C(=O)O)CC1` [Compound A, 4-amino-N—[N^2—[N—[N—[N-((R)-2-phenylpropyl)glycyl]-D-phenylalanyl]-D-leucyl]-D-lysyl]piperidine-4-carboxylic acid] (H-[Gly(N-(2R-Ph-propyl))][dF][dL][dK]-{Piperidin1yl(4-NH2,4-COOH)}): the “Solubility (in words)” value in series [2] is “low solubility”.
